Measurements published in patent US10662164B2, “Non-beta lactam antibiotics” (University of Notre Dame du Lac, priority 2014, dated 2020).
Values after ≈ are worked out from the molar mass of the structure shown. Where two headings read alike, the source gives them in different places. Marks after values point to notes of the source that are not given here.

What was measured:
[1] = Fast pharmacokinetic (PK) studies; format: in vivo, mouse
Procedure: To rapidly ascertain the PK properties of the compounds, fast PK studies were conducted. These studies involve administration of the compounds using a limited number of animals (n=2 mice per time point) for a few time points. This allows us to rapidly compare the preliminary PK properties of the compounds, so that full PK studies are conducted only with the most promising compound(s). […] The alkyne substituted pyrazole 66b had the lowest clearance and the highest systemic exposure, as measured by area under the curve (AUC, Table 2).
Female ICR mice (6-8 weeks old, ˜20-g body weight) were used for the PK and peritonitis studies. Animals were purchased from Harlan Laboratories, Inc. (Indianapolis, Ind., USA) and given Teklad 2019 Extruded Rodent Diet and water ad libitum. Mice were maintained in polycarbonate shoebox cages with ¼″ corncob (The Andersons Inc., Maumee, Ohio) and Alpha-dri (Sheperd Specialty Papers, Inc., Richland, Mich.) bedding under 12-h light/12-h dark cycle at 72±2° F.
For fast PK studies, the compounds were dissolved in 10% DMSO/25% Tween-80/65% water at a concentration of 5 mg/mL. The dosing formulations were sterilized by filtration through a 0.2 μm, 13 mm diameter PTFE membrane attached to an Acrodisc syringe filter (Pall Life Sciences, Ann Arbor, Mich., USA). […] Terminal blood was collected at 5 min, 40 min, 2 h, 4 h, and 8 h; blood was centrifuged at 1200 g for 10 min to harvest plasma.
Plasma ([…], aliquot) was mixed with 100 μL of acetonitrile containing internal standard (final concentration 8 μg/mL). After centrifugation at 10000 g for 10 min, the supernatant was analyzed by ultraperformance liquid chromatography (UPLC) with UV detection at 285 nm. A Waters Acquity UPLC System (Waters Corporation, Milford, Mass., USA), consisting of a binary pump, an autosampler, a column heater, and a photodiode array detector was used. An Acquity UPLC C18 1.7 μm, 2.1 mm i.d.×50 mm column was used. Elution was at 0.5 mL/min with 70% A/30% B for 2 min, followed by a 10-min linear gradient to 10% A/90% B, then 70% A/30% B for 2 min, where A=0.1% formic acid/water and B=0.1% formic acid/acetonitrile. Monitoring was by UV detection at 285 nm. Calibration curves for each compound were prepared in control plasma containing internal standard. The concentrations in the PK samples were obtained using peak area ratio to the internal standard and the calibration curve regression analysis parameters. The methods were linear from 0.01 to 100 μg/mL; coefficients of determination R^2 range from 0.98 to 0.99.
The area under the curve (AUC), clearance (CL), volume of distribution (Vd), and terminal half-life were calculated using Phoenix WinNonlin 6.3 (Certara LP, St Louis, Mo., USA) noncompartmental analysis using uniform weighing. Half-lives were estimated from the linear portion of the initial or terminal phase of the concentration-time data by linear regression, where the slope of the line was the rate constant k and t1/2=ln 2/k.

S. aureus NRS120 = assay: MIC determination; format: cell-based; settings: Staphylococcus aureus
From the text: (§1) The ESKAPE organisms (E. faecium NCTC (ATCC 19734), S. aureus ATCC 29213, K. pneumonia ATCC 700603, A. baumannii ATCC 17961, P. aeruginosa ATCC 17853, E. aerogenes ATCC 35029) and E. coli ATCC 25922) in the initial screen, S. aureus ATCC 27660, S. epidermis ATCC 35547, S. haemolyticus ATCC 29970, S. oralis ATCC 9811, S. pyogenes ATCC 49399, B. cereus ATCC 13061, B. licheniformis ATCC 12759, and E. faecalis ATCC 29212 were purchased from the American Type Culture Collection (Manassas, Va., USA). S. aureus strains NRS100, NRS119, NRS120, VRS1, and VRS2 were obtained from the Network on Antimicrobial Resistance in Staphylococcus aureus (Chantilly, Va., USA). E. faecalis strains 201 and 99, and E. faecium strains 119-39A and 106 were collected from Wayne State University School of Medicine.
(§2) The procedure for MIC determination was the same as previously reported (Tran et al., Am. J. Clin. Dermatol. 2015; doi 10.1007/S40257-015-0125-9).

E. faecalis ATCC 29212 = assay: MIC determination; format: cell-based; settings: Enterococcus faecalis, ATCC29212
From the text: as §1, §2

S. aureus NRS119 = assay: MIC determination; format: cell-based; settings: Staphylococcus aureus
From the text: as §1, §2

E. faecalis 201 (Van S) = assay: MIC determination; format: cell-based; settings: Enterococcus faecalis
From the text: as §1, §2

S. aureus ATCC 27660 = assay: MIC determination; format: cell-based; settings: Staphylococcus aureus, ATCC27660
From the text: as §1, §2

E. faecium 106 (Van R) = assay: MIC determination; format: cell-based; settings: Enterococcus faecium; vancomycin-resistant clinical isolate; Tables 1 and 5; read-out: MIC
From the text: as §1, §2

[2] = test system: B. licheniformis ATCC 12759; assay: MIC determination; format: cell-based; settings: Bacillus licheniformis, ATCC12759
From the text: as §1, §2

E. faecalis 99 (Van R) = assay: MIC determination; format: cell-based; settings: Enterococcus faecalis; vancomycin-resistant clinical isolate; Tables 1 and 5
From the text: as §1, §2

[3] = test system: E. faecium 119-39A (Van S); assay: MIC determination; format: cell-based; settings: Enterococcus faecium
From the text: as §1, §2

S. aureus VRS2 = assay: MIC determination; format: cell-based; settings: Staphylococcus aureus
From the text: as §1, §2

HepG2 cells = assay: XTT cytotoxicity assay; format: cell-based; settings: for IC50: Homo sapiens
Procedure: We used the XTT assay with HepG2 cells to evaluate the in vitro toxicity of compounds 60b, 60c, 65b, 66b, 75b and 76b (Table 2). […] Compared to the lead 1, indole 75b was 5-fold less toxic.
The XTT cytotoxicity assay was performed in triplicated using HepG2 cells (ATCC HB-8065), as previously described (Tran et al., Am. J. Clin. Dermatol. 2015; doi 10.1007/S40257-015-0125-9). The IC50 values were calculated with GraphPad Prism 5 (GraphPad Software, Inc., San Diego, Calif., USA).

[4] = mecA positive, linezolid-resistant, Tables 1 and 5, read-out: MIC
[5] = quality-control strain, Tables 1 and 5, read-out: MIC
[6] = vancomycin-susceptible clinical isolate, Tables 1 and 5, read-out: MIC
[7] = mecA positive, resistant to methicillin, oxacillin, tetracycline, Tables 1 and 5, read-out: MIC
[8] = vancomycin-resistant MRSA (vanA) isolate from Pennsylvania, Tables 1 and 5, read-out: MIC
[9] = HepG2 cells, cytotoxicity, read-out: XTT HepG2 IC50
[10] = single iv dose at 20 mg/kg, mice

| Compound | MIC (S. aureus NRS120; [4]) [µg/mL] | MIC (E. faecalis ATCC 29212; [5]) [µg/mL] | MIC (S. aureus NRS119; [4]) [µg/mL] | MIC (E. faecalis 201 (Van S); [6]) [µg/mL] | MIC (S. aureus ATCC 27660; [7]) [µg/mL] | MIC (E. faecium 106 (Van R)) [µg/mL] | MIC ([2]; Tables 1 and 5, read-out: MIC) [µg/mL] | MIC (E. faecalis 99 (Van R)) [µg/mL] | MIC [3, 6] [µg/mL] | MIC (S. aureus VRS2; [8]) [µg/mL] | IC50 (HepG2 cells; [9]) [µg/mL] | AUC0-8 h [1, 10] [µg·min/mL] | CL [1, 10] [mL/min/kg] | also measured |
| --- | --- | --- | --- | --- | --- | --- | --- | --- | --- | --- | --- | --- | --- | --- |
| Oc1ccc(-c2nc(-c3ccc(Oc4ccc(C(F)(F)F)cc4)cc3)no2)cc1 [Compound 1] | 2 (≈ 5.02 µM) | 2 (≈ 5.02 µM) | 2 (≈ 5.02 µM) | 2 (≈ 5.02 µM) | 2 (≈ 5.02 µM) | 2 (≈ 5.02 µM) | 2 (≈ 5.02 µM) | 2 (≈ 5.02 µM) | 1 (≈ 2.51 µM) | 2 (≈ 5.02 µM) | 25.8 (≈ 64.8 µM) | – | – | AUC(0-t) ([1]; ICR, mouse, plasma, compound 1 at 50 mg/kg iv, read-out: AUC0-8 h): 44200 ng·h/mL; CL ([1]; compound 1 at 50 mg/kg iv): 18.9^c mL/min/kg |
| FC(F)(F)c1ccc(Oc2ccc(-c3noc(-c4n[nH]cc4Cl)n3)cc2)cc1 [Compound 60b, 5-(4-Chloro-1H-pyrazol-3-yl)-3-(4-(4-(trifluoromethyl)phenoxy)phenyl)-1,2,4-oxadiazole] | 64 (≈ 157 µM) | > 128 | – | > 128 | 2 (≈ 4.92 µM) | > 128 | > 128 | > 128 | > 128 | 0.5 to 1 (≈ 1.23 to 2.46 µM) | 24.1 ± 1.6 (≈ 59.3 µM) | 910 | 22.0 | – |
| Fc1ccc(Oc2ccc(-c3noc(-c4n[nH]cc4Cl)n3)cc2)cc1 [Compound 60c, 5-(4-Chloro-1H-pyrazol-3-yl)-3-(4-(4-fluorophenoxy)phenyl)-1,2,4-oxadiazole] | 64 (≈ 179 µM) | > 128 | 2 (≈ 5.61 µM) | > 128 | – | > 128 | > 128 | > 128 | > 128 | – | 18.2 ± 2.9 (≈ 51 µM) | 446 | 44.9 | – |
| CC(C)Nc1c[nH]nc1-c1nc(-c2ccc(Oc3ccc(C(F)(F)F)cc3)cc2)no1 [Compound 65b, N-Isopropyl-3-(3-(4-(4-(trifluoromethyl)phenoxy)phenyl)-1,2,4-oxadiazol-5-yl)-1H-pyrazol-4-amine] | – | – | – | – | – | – | – | – | – | – | – | 1313 | 15.2 | MIC (S. aureus NRS120): > 128 µg/mL; MIC (E. faecalis ATCC 29212): > 128 µg/mL; MIC (S. aureus NRS119): 2 µg/mL (≈ 4.66 µM); MIC (E. faecalis 201 (Van S)): > 128 µg/mL; MIC (S. aureus ATCC 27660): 0.5 µg/mL (≈ 1.16 µM); MIC [2]: > 128 µg/mL; MIC [3]: > 128 µg/mL; MIC (S. aureus VRS2; MRSA): 4 µg/mL (≈ 9.32 µM); IC50 (HepG2 cells; HepG2, read-out: XTT HepG2 IC50): 3.9 ± 0.8 µg/mL (≈ 9.08 µM) |
| C#Cc1c[nH]nc1-c1nc(-c2ccc(Oc3ccc(C(F)(F)F)cc3)cc2)no1 [Compound 66b, 5-(4-Ethynyl-1H-pyrazol-3-yl)-3-(4-(4-(trifluoromethyl)phenoxy)phenyl)-1,2,4-oxadiazole] | > 128 | > 128 | 32 (≈ 80.7 µM) | > 128 | 0.5 (≈ 1.26 µM) | – | > 128 | > 128 | – | 0.5 (≈ 1.26 µM) | 9.8 ± 4 (≈ 24.7 µM) | 8261 | 2.4 | – |
| FC(F)(F)c1ccc(Oc2ccc(-c3noc(-c4ccc5[nH]ccc5c4)n3)cc2)cc1 [Compound 75b, 5-(1H-Indol-5-yl)-3-(4-(4-(trifluoromethyl)phenoxy)phenyl)-1,2,4-oxadiazole] | – | – | – | – | – | – | – | 16 (≈ 38 µM) | – | – | 75.7 ± 7.3 (≈ 180 µM) | 1283 | 15.2 | fold less toxic than the lead 1 (HepG2 cells; XTT assay, HepG2 cells): 5 fold |
| FC(F)(F)c1ccc(Oc2ccc(-c3noc(-c4c[nH]cn4)n3)cc2)cc1 [Compound 76b, 5-(1H-Imidazol-4-yl)-3-(4-(4-(trifluoromethyl)phenoxy)phenyl)-1,2,4-oxadiazole] | – | – | – | – | – | – | – | – | – | – | 31.5 ± 0.5 (≈ 84.6 µM) | 2054 | 9.7 | – |
